System: L. major lysate proteins
Assay: Multitargeted bead mixture chemoproteomics, single concentration competition, proteome-wide
Type: binding
Conditions: for fold change: vehicle control = 1

Nc1nc2c(c(=O)[nH]1)N(C=O)C(CNc1ccc(C(=O)N[C@@H](CCC(=O)O)C(=O)O)cc1)CN2 (stereo partly drawn) [LEU, leucovorin]
fold change vs vehicle control (protein LMJF.15.0690 HY[…], CONSERVED): 1.14 | fold change (protein LMJF.15.1010 GLUTAMATE DEHYDROGENASE): 0.98 | fold change (protein LMJF.15.1190 HYPOTHETICAL PROTEIN, CONSERVED (cyclic nucleotide-binding domain containing protein, putative)): 0.96 | fold change vs vehicle control (protein LMJF.16.0520 HYPOTHETICAL PROTEIN, CONSERVED): 1.1 | fold change vs vehicle control (protein LMJF.16.0540 ASPARTATE CARBAMOYLTRANSFERASE, PUTATIVE): 0.98 | fold change relative to vehicle control (protein LMJF.16.0760, TRANSALDOLASE, PUTATIVE): 1.22 | fold change vs vehicle control (protein LMJF.16.0940 DYNEIN LIGHT CHAIN, PUTATIVE): 1.06 | fold change relative to vehicle control (protein LMJF.16.1180, COATOMER DELTA SUBUNIT-LIKE PROTEIN): 1.21 | fold change relative to vehicle control (protein LMJF.16.1320, CYTOCHROME C, PUTATIVE): 2.28 | fold change relative to vehicle control (protein LMJF.16.1420, HY[…], CONSERVED): 1.01 | fold change relative to vehicle control (protein LMJF.17.0081, […] 1-ALPHA): 1.09 | fold change relative to vehicle control (protein LMJF.18.0270, GLYCOGEN SYNTHASE KINASE, PUTATIVE): 0.57 | fold change (protein LMJF.18.0580 P[…]-COA HYDRATASE, PUTATIVE): 1.02 | fold change relative to vehicle control (protein LMJF.18.0680, CITRATE SYNTHASE, PUTATIVE): 1.15 | fold change vs vehicle control (protein LMJF.18.1010 DYNEIN LIGHT CHAIN 2B, CYTOPLASMIC, PUTATIVE): 0.99 | fold change vs vehicle control (protein LMJF.18.1210 PROLYL-TRNA SYNTHETASE, PUTATIVE,BI[…]-TRNA SYNTHETASE, PUTATIVE): 1.38 | fold change vs vehicle control (protein LMJF.18.1370 HEAT SHOCK PROTEIN, PUTATIVE): 0.99 | fold change (protein LMJF.19.0200 ADP,ATP CARRIER PROTEIN 1, MIT[…], PUTATIVE): 1.01 | fold change vs vehicle control (protein LMJF.19.1120 PROTEASOME REGULATORY NON-ATP-ASE SUBUNIT, PUTATIVE): 0.93 | fold change vs vehicle control (protein LMJF.19.1160 HYPOTHETICAL PROTEIN, CONSERVED): 0.87 | fold change vs vehicle control (protein LMJF.19.1560 INOSINE-5'-MONOPHOSPHATE DEHYDROGENASE): 1.06 | fold change relative to vehicle control (protein LMJF.19.1620, POTASSIUM VOLTAGE-GATED CHANNEL, PUTATIVE): 1.08 | fold change vs vehicle control (protein LMJF.20.1280 SMALL MYRISTOYLATED PROTEIN 4, PUTATIVE): 0.97 | fold change (protein LMJF.21.0810 METHIONYL-TRNA SYNTHETASE, PUTATIVE): 1.03 | fold change (protein LMJF.21.1450 ARGININE N-METHYLTRANSFERASE, TYPE II, PUTATIVE): 1.01 | fold change vs vehicle control (protein LMJF.21.1830 […] 5 SUBUNIT, PUTATIVE,20S […] ALPHA 5, (PUTATIVE)): 1.06 | fold change (protein LMJF.22.0230 AMINO ACID PERMEASE, PUTATIVE): 0.86 | fold change vs vehicle control (protein LMJF.22.0570 PROTEASOME REGULATORY ATPASE SUBUNIT 1, PUTATIVE): 0.98 | fold change vs vehicle control (protein LMJF.22.0730 HY[…], CONSERVED): 1.05 | fold change (protein LMJF.22.0770 NADH-CYTOCHROME B5 REDUCTASE, PUTATIVE): 1.02 | fold change relative to vehicle control (protein LMJF.23.0020, HY[…], CONSERVED): 1.09 | fold change relative to vehicle control (protein LMJF.23.0040, PEROXIDOXIN): 1.41 | fold change relative to vehicle control (protein LMJF.23.0080, HY[…], CONSERVED): 1.07 | fold change (protein LMJF.23.0210 ATP-BINDING CASSETTE PROTEIN SUBFAMILY C, MEMBER 1, PUTATIVE): 0.88 | fold change (protein LMJF.23.0370 CYTOCHROME C OXIDASE SUBUNIT 10, PUTATIVE): 0.88 | fold change relative to vehicle control (protein LMJF.23.0540, ACETYL-COA SYNTHETASE, PUTATIVE): 1.24 | fold change vs vehicle control (protein LMJF.23.0560 KINESIN, PUTATIVE): 1.03 | fold change vs vehicle control (protein LMJF.23.1410 HY[…], CONSERVED): 1.01 | fold change relative to vehicle control (protein LMJF.24.0070, HYPOTHETICAL PROTEIN, CONSERVED): 0.98 | fold change (protein LMJF.24.0140 ANKYRIN/TPR REPEAT PROTEIN): 0.96 | fold change (protein LMJF.24.0400 HY[…], CONSERVED (TPR repeat, putative)): 1.02 | fold change relative to vehicle control (protein LMJF.24.1510, IGE-DEPENDENT HISTAMINE-RELEASING FACTOR, PUTATIVE): 1.54 | fold change relative to vehicle control (protein LMJF.24.1630, SUCCINATE DEHYDROGENASE FLAVOPROTEIN, PUTATIVE): 1.06 | fold change relative to vehicle control (protein LMJF.24.2060, TRANSKETOLASE): 0.92 | fold change relative to vehicle control (protein LMJF.25.0010, BETA […] TRANSFERASE): 1.41 | fold change relative to vehicle control (protein LMJF.25.0910, CYCLOPHILIN A): 2.65 | fold change vs vehicle control (protein LMJF.25.1130 […] OXIDASE VII, PUTATIVE): 1.08 | fold change relative to vehicle control (protein LMJF.25.1180, ATPASE BETA SUBUNIT, PUTATIVE): 1.04 | fold change vs vehicle control (protein LMJF.25.1610 HY[…], CONSERVED): 1.03 | fold change vs vehicle control (protein LMJF.25.1620 HYPOTHETICAL PROTEIN, CONSERVED): 0.97 | fold change (protein LMJF.25.2340 SERINE/THREONINE-PROTEIN KINASE, PUTATIVE,PROTEIN KINASE, PUTATIVE): 0.76 | fold change relative to vehicle control (protein LMJF.26.0630, HY[…], CONSERVED): 1.23 | fold change vs vehicle control (protein LMJF.26.1240 HEAT SHOCK PROTEIN 70-RELATED PROTEIN): 1.1 | fold change (protein LMJF.26.1710 CYTOCHROME C OXIDASE SUBUNIT V, PUTATIVE): 0.98 | fold change vs vehicle control (protein LMJF.26.2480 CDP-DIACYLGLYCEROL--INOSITOL 3-PHOSPHATIDYLTRANSFERASE, PUTATIVE): 0.94 | fold change vs vehicle control (protein LMJF.26.2560 HYPOTHETICAL PROTEIN, CONSERVED): 0.91 | fold change vs vehicle control (protein LMJF.27.0190 […] 7 SUBUNIT, PUTATIVE): 1.06 | fold change (protein LMJF.27.0650 HYPOTHETICAL PROTEIN, CONSERVED): 0.98 | fold change (protein LMJF.27.0700 HYPOTHETICAL PROTEIN, CONSERVED): 0.69 | fold change vs vehicle control (protein LMJF.27.0760 GTP-binding protein homologue): 1.15 | fold change vs vehicle control (protein LMJF.27.1060 CYSTEINE DESULFURASE, PUTATIVE): 1.03 | fold change vs vehicle control (protein LMJF.27.1110 MITOCHONDRIAL RNA BINDING PROTEIN 1,GBP21, MRP1): 0.96 | fold change (protein LMJF.27.1250 HYPOTHETICAL PROTEIN, CONSERVED (Serine-threonine kinase receptor-associated protein, putative)): 0.88 | fold change relative to vehicle control (protein LMJF.27.1390, 60S ACIDIC RIBOSOMAL SUBUNIT PROTEIN, PUTATIVE): 1.11 | fold change (protein LMJF.27.1460 PROTEASOME REGULATORY NON-ATP-ASE SUBUNIT 3, PUTATIVE): 0.97 | fold change vs vehicle control (protein LMJF.28.0110 […] 3 SUBUNIT, PUTATIVE): 1.08

Reference: publication PMC6199744, “Development of Chemical Proteomics for the Folateome and Analysis of the Kinetoplastid Folateome” (ACS Infectious Diseases, 2018)
